The experiment deals with T1, human IRAK4 kinase domain (aa 154-460) (Homo sapiens, UniProt Q9NWZ3).
T1 construct: human IRAK4 kinase domain (aa 154-460; GenBank ID AF445802)
T1 sequence (Q9NWZ3 154-460): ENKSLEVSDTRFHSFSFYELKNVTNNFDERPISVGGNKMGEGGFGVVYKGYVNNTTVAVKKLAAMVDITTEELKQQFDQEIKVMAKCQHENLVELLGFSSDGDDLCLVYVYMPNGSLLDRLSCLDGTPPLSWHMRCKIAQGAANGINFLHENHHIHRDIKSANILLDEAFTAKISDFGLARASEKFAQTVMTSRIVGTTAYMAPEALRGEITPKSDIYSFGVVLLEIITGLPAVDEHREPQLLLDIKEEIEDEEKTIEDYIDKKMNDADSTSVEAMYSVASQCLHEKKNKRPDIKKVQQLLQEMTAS
In words: IRAK4 Enzymatic DELFIA Assay. In kind it is biochemical. The settings on record: 0.6 mM ATP (KM); 114 pM IRAK4 kinase domain; 200 nM substrate; 5% DMSO. On the procedure:
IRAK4 Enzymatic DELFIA Assay.
This is an in vitro assay to measure IRAK4 enzymatic activity utilizing the DELFIA (Dissociation-Enhanced Lanthanide Fluorescent Immunoassay, Perkin-Elmer) platform, with the human IRAK4 kinase domain (aa 154-460) construct to characterize IRAK4 inhibitor and control compounds at 0.6 mM ATP (KM). The final amount of enzyme in the assay is 114 pM IRAK4 kinase domain, final concentration of substrate is 200 nM, and final concentration of DMSO is 5%.
The test compound was solubilized in DMSO to a stock concentration of 30 mM. The dose response plates were prepared with a 2 mM primary compound concentration, and then diluted in DMSO in a four-fold series for a total of 10 data points. Compounds were prepared as a 20-fold multiple of the final in-assay concentration
To begin the assay, 45 μL of reaction mixture containing 20 mM HEPES pH=7.5, 5 mM MgCl2, 0.0025% Brij-35, […], 228 pM phosphorylated recombinant human IRAK4 kinase domain (aa 154-460; GenBank ID AF445802) were aliquoted into Ultra-Clear Polypropylene, 96-well, U-Bottom Plates (Corning Life Sciences). 5 μL of test compound from the dose-response plate was added to the reaction mixture and incubated for 15 minutes at room temperature. Then 50 μL of 20 mM HEPES pH=7.5, 5 mM MgCl2, 0.0025% Brij-35, 600 μM ATP, and 400 nM ERM-biotinylated peptide (AGAGRDKYKTLRQIR) were added to start the reaction. The reaction was incubated for 90 minutes at room temperature and stopped by the addition of 25 μL 0.5M EDTA.
100 μL of the reaction mixture was transferred to a streptavidin coated detection plate (EvenCoat Streptavidin Coated Plates, 96-Well, R&D Systems) and incubated for 30 minutes at room temperature. The plates were washed 4 times with 100 μL per well of PBS containing 0.05% Tween-20. Plates were then incubated with 50 μL per well of antibody cocktail of Anti-pERM antibody (Cell Signaling Technology) diluted 1:5000, plus Anti-Rabbit IgG EuN1 at 0.242 μg/ml (Perkin-Elmer Life Sciences) in a solution of 10 mM MOPS pH=7.5, 150 mM NaCl, 0.05% Tween-20, 0.02% NaN3, 1% BSA, 0.1% Gelatin for 45 minutes. The plates were washed 4× with 100 μL per well of PBS containing 0.05% Tween-20. Then 100 μL per well of DELFIA Enhancement Solution were added to the plate and then read on an EnVision Model 2103 using a 340 nm excitation wavelength and a 665 nm emission detection.

The structures appear in SMILES notation. Counter-ions that a name gives are not always drawn.

Compound `CC(C)Oc1cc2c(OC3CCNCC3)nccc2cc1C(N)=O` [Example 60, 1-(piperidin-4-yloxy)-7-(propan-2-yloxy)isoquinoline-6-carboxamide] registered an IC50 of 92 nM.

On to `CC(C)Oc1cc2c(OC3CCCNC3)nccc2cc1C(N)=O` (stereo not drawn) [Example 64, 1-(piperidin-3-yloxy)-7-(propan-2-yloxy)isoquinoline-6-carboxamide hydrochloride], for which the IC50 turned out to be 160 nM. This IC50 is about 1.7-fold higher than that of the compound before.

The compound `CCOc1cc2c(O[C@@H]3CCCNC3)ccnc2cc1C(N)=O` [Example 65, (R)-6-ethoxy-4-(piperidin-3-yloxy)quinoline-7-carboxamide hydrochloride] had an IC50 of 419 nM.

`CC(C)Oc1cc2c(O[C@@H]3[C@@H]4CC=C[C@H]3NC4=O)nccc2cc1C(N)=O` [Example 66, 1-{[(1S,5R,8R)-7-oxo-6-azabicyclo[3.2.1]oct-3-en-8-yl]oxy}-7-(propan-2-yloxy)isoquinoline-6-carboxamide]: the half-inhibitory concentration (IC50) is 38 nM.

In turn, `NC(=O)c1cc2nccc(O[C@@H]3CCCNC3)c2cc1OC(F)F` [Example 67, (R)-6-(difluoromethoxy)-4-(piperidin-3-yloxy)quinoline-7-carboxamide] gave an IC50 of 1390 nM.

Turning to `Cc1cc(O[C@@H]2CCCNC2)c2cc(OC(C)C)c(C(N)=O)cc2n1` [Example 68, (R)-6-isopropoxy-2-methyl-4-(piperidin-3-yloxy)quinoline-7-carboxamide trifluoroacetate], the IC50 came to 1300 nM.

On to `CC(C)Oc1cc2c(O[C@@H]3CCCNC3)cccc2cc1C(N)=O` [Example 69, (R)-3-isopropoxy-5-(piperidin-3-yloxy)-2-naphthamide trifluoroacetate], for which the IC50 was 36 nM. Compared with the last compound, the IC50 is about 36-fold lower.

For the compound `CC(C)Oc1cc2c(O[C@H]3CNCC[C@@H]3C)nccc2cc1C(N)=O` [Example 70, 1-{[(3R,4S)-4-methylpiperidin-3-yl]oxy}-7-(propan-2-yloxy)isoquinoline-6-carboxamide], the IC50 was found to be 1250 nM.

Consider `CC(C)Oc1cc2c(OC3CCCN(C)C3)ccnc2cc1C(N)=O` (stereo not drawn) [Example 71, 4-[(1-methylpiperidin-3-yl)oxyl]-6-(propan-2-yloxy)quinoline-7-carboxamide], for which the midpoint of inhibition, the IC50, lay at 1200 nM.

`CC[C@H](C)Oc1cc2c(O[C@@H]3CCCNC3)ccnc2cc1C(N)=O` [Example 72, 6-[(2S)-butan-2-yloxy]-4-[(3R)-piperidin-3-yloxy]quinoline-7-carboxamide]: the IC50 is 1100 nM.

With `CC(C)Oc1cc2c(O[C@@H]3CCCNC3)ncc(C#N)c2cc1C(N)=O` [Example 73, 4-cyano-1-[(3R)-piperidin-3-yloxy]-7-(propan-2-yloxy)isoquinoline-6-carboxamide], the half-maximal inhibitory concentration (IC50) stood at 1590 nM.

For the compound `CC(C)Oc1cc2c(O[C@H]3CNCC[C@@H]3C)ccnc2cc1C(N)=O` [Example 74, 4-{[(3R,4S)-4-methylpiperidin-3-yl]oxy}-6-(propan-2-yloxy)quinoline-7-carboxamide], the IC50 amounted to 2800 nM.

Compound `CC(C)Oc1cc2c(O[C@H]3CCCNC3)nccc2cc1C(N)=O` [Example 75, 1-[(3S)-piperidin-3-yloxy]-7-(propan-2-yloxy)isoquinoline-6-carboxamide] had an IC50 of 3080 nM.

In turn, `CC(C)COc1cc2c(O[C@@H]3CCCNC3)ccnc2cc1C(N)=O` [Example 76, 6-(2-methylpropoxy)-4-[(3R)-piperidin-3-yloxy]quinoline-7-carboxamide] had an IC50 of 2280 nM.

In turn, `CC(C)Oc1cc2c(O[C@@H]3CCNC3)ccnc2cc1C(N)=O` [Example 77, 6-(propan-2-yloxy)-4-[(3R)-pyrrolidin-3-yloxy]quinoline-7-carboxamide] had a concentration for half-maximal inhibition (IC50) of 1230 nM.

On to `CC(C)Oc1cc2c(O[C@H]3CNCC[C@@H]3C)ccnc2cc1C(N)=O` [Example 78, 4-{[(3R,4S)-4-methylpiperidin-3-yl]oxy}-6-(propan-2-yloxy)quinoline-7-carboxamide], for which half-maximal inhibition (IC50) was put at 3040 nM.

For `CC(C)Oc1cc2c(O[C@H]3CCNC3)nccc2cc1C(N)=O` [Example 79, 7-(propan-2-yloxy)-1-[(3S)-pyrrolidin-3-yloxy]isoquinoline-6-carboxamide], the IC50 was 1470 nM.

In turn, `CC(C)Oc1cc2c(O[C@H]3C[C@H]4CC[C@@H](C3)N4)nccc2cc1C(N)=O` [Example 80, 1-[(3-endo)-8-azabicyclo[3.2.1]oct-3-yloxy]-7-(propan-2-yloxy)isoquinoline-6-carboxamide] displayed an IC50 of 1320 nM.

A word on the IC50: it is the point on the concentration scale where inhibition reaches its midpoint. Higher therefore signals weaker potency.

These data come from patent US20180230127A1 (PFIZER INC., priority 2015, published 2018).
